Test results taken from ChEMBL document CHEMBL1201862, “PubChem BioAssay data set” (2004).
Calls of active or inactive are those of the source.

Assays:
[1] = MC4R antagonists, dose response, counter-screen for LGR2 antagonist project, cell-based, plate reader, cherry pick (AID 743444); type: functional;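 note: transfected HEK 293 cells stimulated with alpha-MSH peptide; potency of inhibitors of the alpha-MSH evoked signal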
[2] = biological target: T1, Heat shock factor protein 1 (Mus musculus, UniProt P38532); assay: inhibition of MG132-induced HSE-luciferase signal, confirmation, cell-based, NIH3T3, luminescence, dose retest (AID 2382); type: functional;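 note: NIH3T3 fibroblasts with HSF1-driven luciferase reporter stressed by proteasome inhibitor MG132; luminescence from HSF1-driven luciferase expression after 8 hours of MG132 stress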
T1 sequence (P38532 whole entry): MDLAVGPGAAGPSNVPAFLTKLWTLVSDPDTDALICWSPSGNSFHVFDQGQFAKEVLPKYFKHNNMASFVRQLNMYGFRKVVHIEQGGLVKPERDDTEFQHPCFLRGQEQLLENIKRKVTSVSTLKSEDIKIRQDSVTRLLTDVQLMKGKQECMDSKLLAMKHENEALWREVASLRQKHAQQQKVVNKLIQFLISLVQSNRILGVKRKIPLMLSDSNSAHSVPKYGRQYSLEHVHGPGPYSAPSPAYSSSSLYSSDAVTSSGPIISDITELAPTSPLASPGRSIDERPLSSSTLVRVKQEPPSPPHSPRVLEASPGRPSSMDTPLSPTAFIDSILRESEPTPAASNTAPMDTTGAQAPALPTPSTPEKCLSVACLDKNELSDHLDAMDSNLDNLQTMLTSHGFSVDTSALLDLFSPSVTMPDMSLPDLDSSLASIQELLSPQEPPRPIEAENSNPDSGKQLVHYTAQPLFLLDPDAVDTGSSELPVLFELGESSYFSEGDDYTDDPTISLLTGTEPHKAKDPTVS

[3] = HepG2 cell cytotoxicity, dose response, cytotoxicity control, plate reader, cherry-pick, antagonist series (AID 743416); type: functional, cell-based
[4] = cytotoxicity in HEK-293T cells, dose response, cytotoxicity control for BCR NF-kB inhibitor project, luminescence, B-cell screen hits (AID 489021); type: functional, cell-based;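 note: HEK-293T cells carrying an NF-kB luciferase reporter; cells exposed to compound for about 14 hours before viability readout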
[5] = Luminescence-based counterscreen assay for KLF5 inhibitors: dose response cell-based high throughput screening assay to identify cytotoxic compounds using the IEC-6 intestinal epithelial cell line. [Related pubchem assays: 1700 (Primary screen.), 1834 (Confirmation screen.), 1858 (Summary AID.), 1905 (Counterscreen.)]; type: functional
[6] = HEK293 cell cytotoxicity, dose response, cytotoxicity control, plate reader, cherry-picked samples (AID 743446); type: functional, cell-based
HEK293 = assay: inhibitors of LMP1-driven NF-kB reporter, dose response, cell-based, HEK293, luciferase, cherry-pick (AID 588343); type: functional; details: Homo sapiens
[7] = inhibitors of CMV-promoter luciferase reporter, dose response, counter-screen for Pax8 inhibitor project, cell-based, HEK293, luminescence, dry powder (AID 743020); type: functional
[8] = LGR2 antagonists, dose response, cell-based, HEK293, CRE-luciferase reporter, cherry pick, set 2 (AID 743343); type: functional;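 note: transfected cells were stimulated with diluted bursicon conditioned medium after compound addition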
Paired box protein Pax-8 = Paired box protein Pax-8 (Homo sapiens, UniProt Q06710); assay: inhibitors of PAX8-driven TPO luciferase reporter, dose response, RMG-I cells, cherry-pick (AID 687027); type: functional, cell-based;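 note: luciferase reporter driven by Pax8 target thyroperoxidase promoter measured by SteadyGlo luminescence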
Sequence of Paired box protein Pax-8 (Q06710 whole entry): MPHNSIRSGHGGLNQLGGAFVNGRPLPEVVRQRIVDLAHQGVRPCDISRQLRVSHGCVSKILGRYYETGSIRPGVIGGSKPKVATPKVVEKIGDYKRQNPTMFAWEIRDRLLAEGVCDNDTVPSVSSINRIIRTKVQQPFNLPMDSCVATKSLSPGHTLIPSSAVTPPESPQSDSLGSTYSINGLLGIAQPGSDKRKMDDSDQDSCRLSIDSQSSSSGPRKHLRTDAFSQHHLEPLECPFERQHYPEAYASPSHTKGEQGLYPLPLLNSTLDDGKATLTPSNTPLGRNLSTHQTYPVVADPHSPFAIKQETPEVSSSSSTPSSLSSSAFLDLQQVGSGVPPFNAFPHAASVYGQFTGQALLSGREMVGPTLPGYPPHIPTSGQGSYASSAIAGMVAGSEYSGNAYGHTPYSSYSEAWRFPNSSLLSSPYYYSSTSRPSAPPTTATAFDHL

[9] = non-specific cell cytotoxicity, dose response, cytotoxicity control for PAX8 inhibitor project, plate reader, dry powder samples (AID 743021); type: functional, cell-based
[10] = microbe, parasite or virus in culture; type: functional; details: Mycobacterium tuberculosis
[11] = A549 cell cytotoxicity, dose response, cytotoxicity control, plate reader, cherry-pick, antagonist series (AID 743412); type: functional, cell-based
[12] = biological target: T2, Ubiquitin-conjugating enzyme E2 N (Homo sapiens, UniProt P61088); type: functional;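 note: Dose-response confirmation in a TR-FRET assay detecting UBC13-driven polyubiquitin chain formation, inhibition measured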
T2 sequence (P61088 whole entry): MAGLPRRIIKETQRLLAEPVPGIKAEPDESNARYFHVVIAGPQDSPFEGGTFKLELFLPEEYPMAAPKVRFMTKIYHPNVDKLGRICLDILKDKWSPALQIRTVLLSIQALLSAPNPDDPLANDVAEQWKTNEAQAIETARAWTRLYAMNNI

[13] = biological target: Heat shock protein HSP 90-alpha (Homo sapiens, UniProt P07900); type: functional, organism-based
[14] = cytotoxicity in KRAS-transformed pancreatic duct cells, primary screen, cell-based, fluorescence, HTS (AID 431); type: functional; details: Homo sapiens;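 note: cell line used: HPDE-C7K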
[15] = cytotoxicity in HPDE-C7 cells, cell-based, fluorescence, HTS (AID 430); type: functional; details: Homo sapiens
[16] = biological target: T3, Aryl hydrocarbon receptor (Homo sapiens, UniProt P35869); details: Potency;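 note: confirmatory quantitative high-throughput screen measuring activation of the AhR signaling pathway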
T3 sequence (P35869 whole entry): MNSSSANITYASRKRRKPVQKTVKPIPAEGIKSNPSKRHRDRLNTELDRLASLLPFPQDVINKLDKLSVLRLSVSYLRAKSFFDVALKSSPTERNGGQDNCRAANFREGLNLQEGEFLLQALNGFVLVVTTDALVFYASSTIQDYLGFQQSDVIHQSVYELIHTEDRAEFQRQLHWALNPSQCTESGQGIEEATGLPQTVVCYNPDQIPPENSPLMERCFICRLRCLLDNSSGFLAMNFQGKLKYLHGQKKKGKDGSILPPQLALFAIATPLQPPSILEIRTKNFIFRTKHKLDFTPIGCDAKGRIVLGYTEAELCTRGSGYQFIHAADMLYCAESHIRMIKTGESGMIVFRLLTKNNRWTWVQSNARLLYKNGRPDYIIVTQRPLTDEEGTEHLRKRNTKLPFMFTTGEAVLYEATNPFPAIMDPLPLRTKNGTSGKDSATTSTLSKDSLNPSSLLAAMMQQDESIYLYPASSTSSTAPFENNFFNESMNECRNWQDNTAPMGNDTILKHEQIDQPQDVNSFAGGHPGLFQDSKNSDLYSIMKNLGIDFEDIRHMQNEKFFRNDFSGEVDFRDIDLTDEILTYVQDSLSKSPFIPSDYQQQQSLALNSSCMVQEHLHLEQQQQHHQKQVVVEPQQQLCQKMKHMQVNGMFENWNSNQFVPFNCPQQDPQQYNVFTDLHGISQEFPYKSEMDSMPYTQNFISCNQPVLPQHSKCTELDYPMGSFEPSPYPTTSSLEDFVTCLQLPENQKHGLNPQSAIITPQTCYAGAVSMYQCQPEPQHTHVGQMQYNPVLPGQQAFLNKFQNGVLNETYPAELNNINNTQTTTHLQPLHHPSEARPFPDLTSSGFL

[17] = biological target: T4, Neuropeptide Y receptor type 2 (Homo sapiens, UniProt P49146); type: functional, cell-based;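 note: HEK293 cells expressing the receptor and a CNG channel; stimulus was NPY near EC95 followed by isoproterenol to raise cAMP; antagonist potency measured as restoring cAMP signal that NPY suppresses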
T4 sequence (P49146 whole entry): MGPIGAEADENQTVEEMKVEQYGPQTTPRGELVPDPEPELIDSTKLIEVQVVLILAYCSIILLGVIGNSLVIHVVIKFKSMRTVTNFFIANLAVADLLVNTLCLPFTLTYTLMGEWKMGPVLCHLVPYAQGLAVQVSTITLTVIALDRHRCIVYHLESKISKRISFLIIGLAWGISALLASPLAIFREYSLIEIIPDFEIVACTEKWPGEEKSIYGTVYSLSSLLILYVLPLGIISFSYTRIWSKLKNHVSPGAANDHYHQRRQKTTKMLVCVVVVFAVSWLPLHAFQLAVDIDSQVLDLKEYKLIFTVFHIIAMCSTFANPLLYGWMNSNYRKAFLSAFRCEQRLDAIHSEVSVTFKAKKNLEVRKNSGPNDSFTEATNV

[18] = Glucagon-like peptide 1 release potency, NCI-H716 cell line, dose-response, half-maximal inhibitory concentration (AID 1117344); type: functional, cell-based
[19] = half-maximal inhibitory concentration for glucagon-like peptide-1 release, STC-1 cell line, dose-response (AID 1117345); type: functional, cell-based
[20] = biological target: Induced myeloid leukemia cell differentiation protein Mcl-1 (Homo sapiens, UniProt Q07820); type: functional
Sequence of Induced myeloid leukemia cell differentiation protein Mcl-1 (Q07820 whole entry): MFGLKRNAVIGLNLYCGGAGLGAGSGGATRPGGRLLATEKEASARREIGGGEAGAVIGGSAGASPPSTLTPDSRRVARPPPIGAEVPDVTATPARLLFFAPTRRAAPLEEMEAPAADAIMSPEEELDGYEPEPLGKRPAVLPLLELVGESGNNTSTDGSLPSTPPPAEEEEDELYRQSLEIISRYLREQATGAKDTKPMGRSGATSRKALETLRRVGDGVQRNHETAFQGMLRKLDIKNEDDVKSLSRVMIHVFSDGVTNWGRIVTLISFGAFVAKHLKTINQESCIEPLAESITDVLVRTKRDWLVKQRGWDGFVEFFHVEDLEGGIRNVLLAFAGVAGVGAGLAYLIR

[21] = enhancers of respiration in Yfh1-depleted yeast, dose response, Friedreich's ataxia, plus single-dose screen (AID 1465); type: functional;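 note: yeast depleted of Yfh1p frataxin homolog grown on glycerol needing respiration; WST-1 tetrazolium dye reduction as measure of cellular dehydrogenase metabolic activity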
[22] = biological target: T5, Rac GTPase-activating protein 1 (Homo sapiens, UniProt Q9H0H5); assay: MgcRacGAP GTPase-activating activity inhibitors, confirmation, biochemical, ADP Hunter fluorescence, primary and confirmatory (AID 624330); type: functional
T5 sequence (Q9H0H5 whole entry): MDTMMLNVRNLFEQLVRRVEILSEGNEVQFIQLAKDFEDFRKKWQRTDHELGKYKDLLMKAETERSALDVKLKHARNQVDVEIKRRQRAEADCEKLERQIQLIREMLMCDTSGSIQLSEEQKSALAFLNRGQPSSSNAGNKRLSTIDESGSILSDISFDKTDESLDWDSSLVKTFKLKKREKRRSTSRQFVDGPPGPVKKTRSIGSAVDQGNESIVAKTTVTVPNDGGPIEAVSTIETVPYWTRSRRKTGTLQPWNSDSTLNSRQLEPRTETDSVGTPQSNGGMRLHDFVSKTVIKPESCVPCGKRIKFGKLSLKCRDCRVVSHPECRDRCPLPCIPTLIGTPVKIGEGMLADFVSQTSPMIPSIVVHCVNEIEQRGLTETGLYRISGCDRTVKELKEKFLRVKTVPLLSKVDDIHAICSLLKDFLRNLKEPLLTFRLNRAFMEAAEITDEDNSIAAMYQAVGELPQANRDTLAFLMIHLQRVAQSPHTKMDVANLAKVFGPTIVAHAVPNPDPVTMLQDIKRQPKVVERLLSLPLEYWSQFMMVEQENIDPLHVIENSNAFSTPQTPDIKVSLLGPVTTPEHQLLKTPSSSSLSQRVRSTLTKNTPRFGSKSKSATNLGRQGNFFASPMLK

[23] = A Cell Based Secondary Assay To Explore Cytotoxicity of Compounds that Sensitize Mycobacterium Tuberculosis to Beta-Lactam Antibiotics.; type: functional
[24] = biological target: T6, Apoptotic protease-activating factor 1 (Homo sapiens, UniProt O14727); type: functional
T6 sequence (O14727 whole entry): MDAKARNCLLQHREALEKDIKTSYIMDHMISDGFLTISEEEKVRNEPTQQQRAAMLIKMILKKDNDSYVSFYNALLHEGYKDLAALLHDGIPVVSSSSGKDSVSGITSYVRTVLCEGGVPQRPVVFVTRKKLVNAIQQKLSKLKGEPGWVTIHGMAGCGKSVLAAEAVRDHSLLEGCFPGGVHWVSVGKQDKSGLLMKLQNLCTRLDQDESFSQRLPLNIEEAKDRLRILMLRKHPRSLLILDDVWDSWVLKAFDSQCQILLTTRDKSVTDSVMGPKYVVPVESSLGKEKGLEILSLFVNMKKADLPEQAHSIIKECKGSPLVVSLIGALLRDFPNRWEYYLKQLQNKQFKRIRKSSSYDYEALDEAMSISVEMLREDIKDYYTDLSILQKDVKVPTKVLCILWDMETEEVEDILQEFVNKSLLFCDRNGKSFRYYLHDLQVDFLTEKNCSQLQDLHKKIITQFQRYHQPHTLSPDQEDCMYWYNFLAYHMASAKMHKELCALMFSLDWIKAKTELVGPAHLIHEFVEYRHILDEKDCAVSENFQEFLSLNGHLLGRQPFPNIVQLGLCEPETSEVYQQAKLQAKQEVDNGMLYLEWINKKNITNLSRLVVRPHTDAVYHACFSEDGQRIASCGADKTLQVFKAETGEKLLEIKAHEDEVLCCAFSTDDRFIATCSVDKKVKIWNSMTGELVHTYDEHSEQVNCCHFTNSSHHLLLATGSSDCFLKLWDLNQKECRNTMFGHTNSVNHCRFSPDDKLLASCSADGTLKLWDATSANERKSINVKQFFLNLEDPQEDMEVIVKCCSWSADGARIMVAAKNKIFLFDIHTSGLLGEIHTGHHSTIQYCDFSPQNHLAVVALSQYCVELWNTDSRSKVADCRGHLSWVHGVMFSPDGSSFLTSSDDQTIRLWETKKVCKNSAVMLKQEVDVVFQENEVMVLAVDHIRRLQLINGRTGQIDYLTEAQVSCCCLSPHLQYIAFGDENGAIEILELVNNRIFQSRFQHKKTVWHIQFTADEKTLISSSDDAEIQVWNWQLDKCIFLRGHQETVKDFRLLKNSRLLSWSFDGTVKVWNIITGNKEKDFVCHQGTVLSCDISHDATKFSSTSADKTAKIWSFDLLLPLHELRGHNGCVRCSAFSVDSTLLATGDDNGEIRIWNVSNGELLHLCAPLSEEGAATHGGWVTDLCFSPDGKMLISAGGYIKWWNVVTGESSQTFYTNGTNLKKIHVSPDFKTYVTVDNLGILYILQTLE

COc1ccc(OCc2cccc(C(=O)Nn3cc([N+](=O)[O-])cn3)c2)cc1
AC50 [1]: 0.462 µM (active) | EC50 [2]: 4.92 µM (active) | AC50 [3]: 34.1 µM (active) | IC50 [4]: > 80 µM (inactive) | IC50 [5]: > 39.8 µM (not active) | AC50 [6]: > 52 µM (inactive) | AC50 (HEK293): 0.709 µM (active) | AC50 [7]: 21 µM (active) | AC50 [8]: 0.407 µM (active) | AC50 (Paired box protein Pax-8): 1.13 µM (active) | AC50 [9]: 10.1 µM (active) | CC50 [10]: > 40 µM (active) | AC50 [11]: > 52 µM (inactive)

Clc1ccc(COC(Cn2ccnc2)c2ccc(Cl)cc2Cl)cc1 (configuration not stated) [ECONAZOLE NITRATE]
IC50 [12]: > 20 µM (inactive) | AC50 [13]: 0.267 µM (active) | EC50 [14]: 15.4 µM (active) | EC50 [15]: 15.9 µM (active) | AC50 [16]: 56.2 µM (inconclusive) | IC50 [17]: 8.02 µM (active) | IC50 [18]: 25.6 µM (inactive) | IC50 [19]: 4.29 µM (active)

CC1=NN(C(N)=S)C(=O)C1N=Nc1ccc(O)cc1 (configuration not stated)
IC50 [20]: 9.66 µM (active) | EC50 [21]: > 100 µM (active) | IC50 [22]: 16.6 µM (active)

CC(C)CC(=O)N1CCN(c2ccc([N+](=O)[O-])c(NCc3ccccc3)c2)CC1
CC50 [23]: > 40 µM (active)

Cc1nn(-c2ccccc2)c(O)c1/C=N/NC(=O)c1cccc([N+](=O)[O-])c1
IC50 [24]: 13.2 µM (active) | CC50 [23]: 7.57 µM (active)
